Assay results: US10703764B2, “Benzopiperazine compositions as BET bromodomain inhibitors” (FORMA Therapeutics, Inc., priority 2013, dated 2020)

What was measured:
MV4-11 cells = test: Oncology cell growth assay (3-day proliferation, CellTiter-Glo); format: cell-based; settings: Homo sapiens, MV4-11, 72 h, AML cell line MV4-11, 72 hours, compounds grouped by IC50 range, read-out: MV4-11 IC50 (inhibition of proliferation, gIC50)
Procedure, shortened: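 Luminescence from CellTiter-Glo served as the growth read-out after MV4-11 cells (3000/well) were cultured with compound for 72 hours. Final concentrations spanned 10 to 0.0045 μM in 3-fold steps. gIC50 values were derived by four-parameter logistic fitting relative to DMSO and cell-free controls.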

BRD4 BD1 = molecular target: T1, BRD4 BD1 (Homo sapiens, UniProt O60885); test: AlphaScreen binding assay, BRD4 Bromodomain 1
T1 construct: made in house
Procedure, shortened: (§1)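 An AlphaScreen competition format was used with His-BRD4 BD1 or BD2 and biotin-H4 K5/8/12/16-acetyl peptide, each at matched final levels of 50 nM (BD1) or 100 nM (BD2). Incubation in HEPES/NaCl buffer with 0.1% BSA and 0.01% Triton X-100 ran ≥1 h before IC50 determination.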

BRD4 BD2 = molecular target: T2, BRD4 BD2 (Homo sapiens, UniProt O60885); test: AlphaScreen binding assay, BRD4 Bromodomain 2
T2 construct: made in house
Procedure, shortened: as §1

SMILES	IC50 (MV4-11 cells) [nM]	IC50 (BRD4 BD1) [nM]	IC50 (BRD4 BD2) [nM]
CC(=O)N1c2ccc(-c3cccc(-c4ccccc4)c3)cc2N(C(=O)COc2ccccc2)C[C@@H]1C [Example I-792]	> 500	> 10000	50 to 500
CC(=O)N1c2ccc(-c3cccc(-c4ccccc4)c3)cc2N(C(=O)c2ccco2)C[C@@H]1C [Example I-793]	> 500	1000 to 10000	50 to 500
CC(=O)N1c2ccc(-c3ccccc3F)cc2N(C(=O)COc2ccccc2)C[C@@H]1C [Example I-794]	> 500	1000 to 10000	> 500
CC(=O)N1c2ccc(-c3ccc(N4CCOCC4)nc3)cc2N(C(=O)c2ccco2)C[C@@H]1C [Example I-800]	100 to 500	1000 to 10000	50 to 500
CNC(=O)c1cccc(-c2ccc3c(c2)N(C(=O)c2ccco2)C[C@H](C)N3C(C)=O)c1 [Example I-801]	> 500	100 to 1000	50 to 500
CC(=O)N1c2ccc(-c3cnn(C)c3)cc2N(C(=O)c2ccco2)C[C@@H]1C [Example I-822]	100 to 500	100 to 1000	< 50
CC(=O)N1c2ccc(-c3ccc4c(c3)OCCO4)cc2N(C(=O)c2ccco2)C[C@@H]1C [Example I-825]	> 500	100 to 1000	< 50
CC(=O)N1c2ccc(-c3cccc(C(=O)N4CCOCC4)c3)cc2N(C(=O)c2ccco2)C[C@@H]1C [Example I-838]	100 to 500	100 to 1000	< 50
CC(=O)N1c2ccc(-c3cccc(S(N)(=O)=O)c3)cc2N(C(=O)c2ccco2)C[C@@H]1C [Example I-841]	100 to 500	1000 to 10000	< 50
CC(=O)N1c2ccc(-c3cccc(NS(C)(=O)=O)c3)cc2N(C(=O)c2ccco2)C[C@@H]1C [Example I-844]	100 to 500	100 to 1000	< 50
CC(=O)N1c2ccc(-c3cccc4c3OCO4)cc2N(C(=O)c2ccco2)C[C@@H]1C [Example I-849]	> 500	100 to 1000	50 to 500
CC(=O)N1c2ccc(-c3cccc(-n4nc(C)cc4C)c3)cc2N(C(=O)c2ccco2)C[C@@H]1C [Example I-857]	> 500	100 to 1000	< 50
CC(=O)N1c2ccc(-c3cccc(NS(=O)(=O)c4ccc(C)cc4)c3)cc2N(C(=O)c2ccco2)C[C@@H]1C [Example I-859]	100 to 500	100 to 1000	< 50
CC(=O)N1c2ccc(-c3ccc(NS(=O)(=O)c4ccc(C)cc4)cc3)cc2N(C(=O)c2ccco2)C[C@@H]1C [Example I-860]	< 100	100 to 1000	< 50
CC(=O)N1c2ccc(-c3ccnc(N4CCOCC4)c3)cc2N(C(=O)c2ccco2)C[C@@H]1C [Example I-862]	> 500	100 to 1000	50 to 500
CC(=O)N1c2ccc(-c3cccc(N4CCCCC4)c3)cc2N(C(=O)c2ccco2)C[C@@H]1C [Example I-867]	> 500	1000 to 10000	50 to 500
CNC(=O)c1cccc(-c2ccc3c(c2)N(C(=O)c2ccco2)CCN3C(C)=O)c1 [Example I-868]	> 500	> 10000	> 500
CCS(=O)(=O)Nc1cccc(-c2ccc3c(c2)N(C(=O)c2ccco2)C[C@H](C)N3C(C)=O)c1 [Example I-876]	100 to 500	100 to 1000	< 50
CC(=O)N1c2ccc(-c3cnn(C4CC4)c3)cc2N(C(=O)OCC2CC2)C[C@@H]1C [Example I-994]	100 to 500	100 to 1000	50 to 500
C[C@H]1CN(C(=O)OCC2CC2)c2cc(-c3cnn(C4CC4)c3)ccc2N1C(=O)C1CC1 [Example I-995]	100 to 500	100 to 1000	50 to 500
COC(=O)N1c2ccc(-c3cnn(C4CC4)c3)cc2N(C(=O)OCC2CC2)C[C@@H]1C [Example I-996]	> 500	100 to 1000	> 500
CC(=O)N1c2ccc(-c3cnn(C4CC4)c3)cc2N(C(=O)OC2COC2)C[C@@H]1C [Example I-997]	100 to 500	100 to 1000	50 to 500
CC(=O)N1c2ccc(-c3cnn(C4CC4)c3)cc2N(C(=O)OC2CCOCC2)C[C@@H]1C [Example I-1000]	100 to 500	< 100	50 to 500
C[C@H]1CN(C(=O)OC2CCOCC2)c2cc(-c3cnn(C4CC4)c3)ccc2N1C(=O)C1CC1 [Example I-1001]	100 to 500	100 to 1000	50 to 500
COC(=O)N1c2ccc(-c3cnn(C4CC4)c3)cc2N(C(=O)OC2CCOCC2)C[C@@H]1C [Example I-1002]	100 to 500	100 to 1000	50 to 500
CC(=O)N1c2ccc(-c3cnn(C4CC4)c3)cc2N(C(=O)OC2CCC2)C[C@@H]1C [Example I-1003]	< 100	< 100	50 to 500

Further lines, results first:

IC50 (MV4-11 cells) [nM]	IC50 (BRD4 BD1) [nM]	IC50 (BRD4 BD2) [nM]	SMILES
> 500	1000 to 10000	50 to 500	CC(=O)N1c2ccc(-c3ccccc3F)cc2N(C(=O)c2ccco2)C[C@@H]1C [Example I-795]
100 to 500	100 to 1000	< 50	CC(=O)N1c2ccc(-c3ccc4c(ccn4C)c3)cc2N(C(=O)c2ccco2)C[C@@H]1C [Example I-796]
> 500	1000 to 10000	50 to 500	CC(=O)N1c2ccc(-c3ccc(-c4ccccc4)cc3)cc2N(C(=O)c2ccco2)C[C@@H]1C [Example I-798]
> 500	1000 to 10000	50 to 500	CC(=O)N1c2ccc(-c3ccc(C(=O)O)cc3)cc2N(C(=O)c2ccco2)C[C@@H]1C [Example I-799]
100 to 500	1000 to 10000	< 50	CC(=O)N1c2ccc(-c3ccccc3)cc2N(C(=O)c2ccco2)C[C@@H]1C [Example I-804]
100 to 500	1000 to 10000	50 to 500	CC(=O)N1c2ccc(-c3ccc4c(c3)OCO4)cc2N(C(=O)c2ccco2)C[C@@H]1C [Example I-806]
100 to 500	100 to 1000	< 50	COc1ccc(-c2ccc3c(c2)N(C(=O)c2ccco2)C[C@H](C)N3C(C)=O)cc1 [Example I-807]
100 to 500	100 to 1000	< 50	CC(=O)N1c2ccc(-c3ccc(C(=O)N(C)C)cc3)cc2N(C(=O)c2ccco2)C[C@@H]1C [Example I-809]
100 to 500	100 to 1000	> 500	CC(=O)N1c2ccc(-c3ccc(C(N)=O)cc3)cc2N(C(=O)c2ccco2)C[C@@H]1C [Example I-810]
100 to 500	1000 to 10000	< 50	CC(=O)N1c2ccc(-c3ccc(S(C)(=O)=O)cc3)cc2N(C(=O)c2ccco2)C[C@@H]1C [Example I-817]
100 to 500	1000 to 10000	< 50	CNC(=O)c1ccc(-c2ccc3c(c2)N(C(=O)c2ccco2)C[C@H](C)N3C(C)=O)cc1 [Example I-824]
100 to 500	100 to 1000	< 50	CC(=O)N1c2ccc(-c3ccc4cnn(C)c4c3)cc2N(C(=O)c2ccco2)C[C@@H]1C [Example I-843]
100 to 500	100 to 1000	50 to 500	CC(=O)N1c2ccc(-c3cccc(S(=O)(=O)N(C)C)c3)cc2N(C(=O)c2ccco2)C[C@@H]1C [Example I-845]
100 to 500	100 to 1000	< 50	CC(=O)N1c2ccc(-c3cccc(C(=O)N(C)C)c3)cc2N(C(=O)c2ccco2)C[C@@H]1C [Example I-848]
100 to 500	100 to 1000	< 50	CC(=O)N1c2ccc(-c3ccc(N4CCOCC4)cc3)cc2N(C(=O)c2ccco2)C[C@@H]1C [Example I-850]
100 to 500	100 to 1000	50 to 500	CC(=O)N1c2ccc(-c3ccc4c(cnn4C)c3)cc2N(C(=O)c2ccco2)C[C@@H]1C [Example I-852]
> 500	1000 to 10000	50 to 500	COc1cc(-c2ccc3c(c2)N(C(=O)c2ccco2)C[C@H](C)N3C(C)=O)ccn1 [Example I-863]
100 to 500	100 to 1000	50 to 500	CC(=O)N1c2ccc(-c3ccc4cnccc4c3)cc2N(C(=O)c2ccco2)C[C@@H]1C [Example I-864]
100 to 500	100 to 1000	< 50	CC(=O)N1c2ccc(-c3ccc4scnc4c3)cc2N(C(=O)c2ccco2)C[C@@H]1C [Example I-865]
100 to 500	100 to 1000	< 50	CC(=O)N1c2ccc(-c3ccc(N(C)C)cc3)cc2N(C(=O)c2ccco2)C[C@@H]1C [Example I-871]
100 to 500	100 to 1000	< 50	CC(=O)N1c2ccc(-c3ccc(C)s3)cc2N(C(=O)c2ccco2)C[C@@H]1C [Example I-872]
100 to 500	100 to 1000	< 50	CC(=O)N1c2ccc(-c3ccc(N4CCN(C)CC4)cc3)cc2N(C(=O)c2ccco2)C[C@@H]1C [Example I-874]
100 to 500	100 to 1000	< 50	CNS(=O)(=O)c1ccc(-c2ccc3c(c2)N(C(=O)c2ccco2)C[C@H](C)N3C(C)=O)cc1 [Example I-875]
> 500	1000 to 10000	50 to 500	CNC(=O)N1c2ccc(-c3ccc(S(C)(=O)=O)cc3)cc2N(C(=O)c2ccco2)C[C@@H]1C [Example I-988]
